The text below walks through data of patent publication US20240262826A1, “WILD TYPE KIT INHIBITORS” (Blueprint Medicines Corporation, priority 2022, published 2024).

Series [1] deals with wild type c-kit (Homo sapiens (Human), UniProt P10721). Briefly: PathScan phospho c-kit (Tyr719) sandwich ELISA in SCF-stimulated M-07e cells (pKIT assay). It is filed as cell-based. As to conditions: ELISA assay (values not marked *). The procedure, abridged: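 Serum- and GM-CSF-starved M-07e cells (4 h) pretreated 60 min at 37 °C with an 8-point compound series in duplicate (0.25% DMSO), then stimulated with human SCF (500 ng/mL stock) 10 min at room temperature. Lysate c-kit Tyr719 phosphorylation quantified by sandwich ELISA with TMB read-out; IC50 from 4-parameter logistic fit.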
In general terms: ELISA stands for enzyme-linked immunosorbent assay.

The target of series [2] is human P-glycoprotein (P-gp, MDR1) (Homo sapiens (Human), UniProt P08183). Briefly: MDCK-MDR1 cell monolayer drug transport assay (P-gp efflux ratio). The series is classed as in vitro ADME. Particulars: pH 7.4, MDCK-MDR1 cells, 1 uM concentration of compound, read-out: Pgp Efflux Ratio, 1 uM. The protocol:
The potential for compounds prepared according to the examples to be substrates of P-gp was evaluated using in vitro on Multidrug Resistance Mutation 1-Mardin-Darby Canine Kidney (MDCK-MDR1)) (Mardin-Darby Canine Kidney) cell monolayers overexpressing P-gp grown on permeable supports.
Preparation for cell seeding: MDCK-MDR1 cell culture medium consisting of Dulbecco's Modified Eagle's Medium (DMEM) with high glucose and L-glutamine supplemented with: 10% FBS, 0.1 mg/mL of streptomycin, 0.6 μg/mL of Kanamycin sulfate and 100 units of penicillin was prepared. 50 μL of culture medium was added to each well of the Transwell insert. The Transwell insert was removed from the reservoir and 25 mL of culture medium was added. After incubation at 37° C., 5% CO2 for 1 hour, the plates were ready for cell seeding. The cells were cultivated in T-75 flasks in a cell culture incubator set at 37° C., 5% CO2, 95% relative humidity until they reached 80-90% confluence before detaching and splitting. The cultivated cells were rinsed in T-75 flasks with 5 mL PBS and aspirated off, and then 1.5 mL trypsin/EDTA was added and incubated at 37° C. for approximately 5 to 10 minutes or until the cells detach and float. The trypsin/EDTA was inactived by adding excess serum containing medium. The cell suspension was transferred to a conical tube and the cells pelleted by centrifugation at 120×g for 10 minutes. The cells were resuspended in seeding medium at a density of 1.56×10^6 cells/mL. This cell concentration was used to seed 5.45×10^5 cells/cm^2.
Seeding and feeding of MDCK-MDR1 cells into transwell plates: 50 μL of the above cell suspension was added to each well of a previously prepared Transwell plate and the plate was incubated for 4-8 days, replacing the medium every other day beginning no sooner than 48 hours after initial plating. The medium must be replaced on the day before conducting the experiment, and the procedure for medium changes was carried out as follows. The plate was removed from the incubator and placed in a hood. The medium was aspirated from a reservoir and each Transwell was inserted. 100 μL of culture medium was added to each well of the Transwell inserts and 25 mL of culture medium to reservoir tray. The plate was returned to the incubator.
Assessment of cell monolayer integrity: When the 4-day cultured MDCK-MDR1 cells reached confluence and were differentiated, the medium was removed from the reservoir and Transwell inserts. 100 μL of prewarmed culture medium was added to each transwell insert and 25 mL was added to the reservoir tray. The electrical resistance across the monolayer was measured using a Millicell Epithelial Volt-Ohm measuring system. The electrical resistance for each well was measured and then the plate was returned to the incubator. TEER values were calculated using this formula: TEER measurement (ohms)×Area of membrane (cm2)=TEER value (ohm cm2). Any monolayer with a TEER value <42 ohms·cm2, indicating poor monolayer formation, was discarded.
Performing the drug transport assay: The MDCK-MDR1 plate was removed from the incubator and the monolayer was washed, exchanging the volume two times using pre-warmed HBSS (Hank's balanced salt solution) (10 mM HEPES, pH 7.4). The plate was then incubated at 37° C. for 30 minutes. A 1 μM compound working solution was prepared as follows: Added […] of stock solution (10 mM in DMSO) of test compound and control compounds (Metoprolol, Prazosin and Imatinib) in one 96 well plate, then added 98 μL of DMSO into the same well to obtain 0.2 mM stock solutions (note a stock solution was further diluted 1:10 for eventually making a 0.1 uM compound working solution). Transfered 3 μL of 0.2 mM solution into 597 μL of transport buffer in one 96 well plate to prepare the 1 μM compound working solution. The plate was shaken at 1000 rpm for 10 min.

The structures appear in SMILES notation. pIC50: −log10 of the molar value.

Chain of wild type c-kit (P10721 26-976): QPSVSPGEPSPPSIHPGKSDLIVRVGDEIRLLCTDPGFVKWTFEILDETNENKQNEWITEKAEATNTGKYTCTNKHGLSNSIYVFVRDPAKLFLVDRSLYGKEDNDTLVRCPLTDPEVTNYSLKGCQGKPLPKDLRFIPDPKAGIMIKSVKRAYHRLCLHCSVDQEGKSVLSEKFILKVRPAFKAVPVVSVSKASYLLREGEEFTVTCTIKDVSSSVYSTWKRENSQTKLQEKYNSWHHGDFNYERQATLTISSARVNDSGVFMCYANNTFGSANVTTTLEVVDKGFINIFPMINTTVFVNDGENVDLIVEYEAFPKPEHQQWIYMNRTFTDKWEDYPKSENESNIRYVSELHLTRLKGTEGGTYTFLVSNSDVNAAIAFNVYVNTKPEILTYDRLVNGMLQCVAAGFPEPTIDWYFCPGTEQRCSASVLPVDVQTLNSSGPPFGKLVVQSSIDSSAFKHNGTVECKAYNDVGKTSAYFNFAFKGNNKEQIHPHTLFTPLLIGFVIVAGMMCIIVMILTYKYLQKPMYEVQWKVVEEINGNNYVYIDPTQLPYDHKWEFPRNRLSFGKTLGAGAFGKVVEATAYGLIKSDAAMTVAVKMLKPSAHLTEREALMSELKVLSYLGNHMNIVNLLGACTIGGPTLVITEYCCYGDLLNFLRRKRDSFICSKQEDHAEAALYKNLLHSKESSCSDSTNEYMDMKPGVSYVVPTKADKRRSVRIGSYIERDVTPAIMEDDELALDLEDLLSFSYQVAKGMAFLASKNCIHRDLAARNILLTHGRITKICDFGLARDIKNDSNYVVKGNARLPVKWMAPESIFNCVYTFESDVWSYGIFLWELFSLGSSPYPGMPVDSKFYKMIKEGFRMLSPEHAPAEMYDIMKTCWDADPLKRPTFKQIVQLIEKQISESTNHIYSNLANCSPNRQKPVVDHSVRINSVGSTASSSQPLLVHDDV
Chain of human P-glycoprotein (P-gp, MDR1) (P08183 whole entry): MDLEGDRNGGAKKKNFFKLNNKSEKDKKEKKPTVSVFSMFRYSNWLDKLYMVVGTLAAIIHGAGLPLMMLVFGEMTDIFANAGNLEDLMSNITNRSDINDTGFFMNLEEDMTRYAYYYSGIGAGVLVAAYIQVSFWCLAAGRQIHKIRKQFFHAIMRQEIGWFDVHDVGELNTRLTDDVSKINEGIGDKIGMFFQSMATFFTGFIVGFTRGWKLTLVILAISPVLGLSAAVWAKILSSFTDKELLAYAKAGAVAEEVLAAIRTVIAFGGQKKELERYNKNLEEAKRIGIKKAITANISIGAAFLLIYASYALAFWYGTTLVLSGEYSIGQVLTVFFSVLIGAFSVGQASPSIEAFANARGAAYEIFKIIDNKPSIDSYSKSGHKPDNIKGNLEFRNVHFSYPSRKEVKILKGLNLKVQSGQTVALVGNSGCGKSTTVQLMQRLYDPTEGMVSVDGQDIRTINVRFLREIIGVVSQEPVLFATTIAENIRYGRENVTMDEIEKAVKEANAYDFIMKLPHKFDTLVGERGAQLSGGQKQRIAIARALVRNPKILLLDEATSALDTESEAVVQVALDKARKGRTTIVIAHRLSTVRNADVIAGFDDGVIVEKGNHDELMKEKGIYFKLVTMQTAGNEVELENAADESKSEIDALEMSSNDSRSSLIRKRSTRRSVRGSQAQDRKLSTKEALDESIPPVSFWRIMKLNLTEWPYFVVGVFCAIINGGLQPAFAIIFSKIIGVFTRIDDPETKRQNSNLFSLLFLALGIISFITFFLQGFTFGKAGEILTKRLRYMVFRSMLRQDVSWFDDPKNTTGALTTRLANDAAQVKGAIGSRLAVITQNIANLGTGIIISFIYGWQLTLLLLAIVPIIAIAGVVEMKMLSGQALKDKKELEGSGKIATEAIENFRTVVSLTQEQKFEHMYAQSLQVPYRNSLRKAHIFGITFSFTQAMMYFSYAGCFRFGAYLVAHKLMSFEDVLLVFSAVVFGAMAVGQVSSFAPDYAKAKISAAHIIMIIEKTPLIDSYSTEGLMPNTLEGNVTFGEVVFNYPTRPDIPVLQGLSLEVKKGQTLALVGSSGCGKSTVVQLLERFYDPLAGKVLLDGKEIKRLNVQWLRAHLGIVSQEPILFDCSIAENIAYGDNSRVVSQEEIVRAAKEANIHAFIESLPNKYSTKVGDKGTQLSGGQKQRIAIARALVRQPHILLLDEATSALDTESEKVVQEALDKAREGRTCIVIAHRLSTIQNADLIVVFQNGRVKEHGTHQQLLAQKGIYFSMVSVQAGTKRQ

The pIC50 is the negative decadic logarithm of the IC50, by convention in mol/L. Low values mean a large IC50, high ones a small IC50. With `COC(=O)N1CC(c2cnn(-c3ccc(C)c(NC(=O)c4cnn5ccc(NCC6COC6)cc45)c3)n2)C1` [Example 140, methyl 3-(2-(4-methyl-3-(5-((oxetan-3-ylmethyl)amino)pyrazolo[1,5-a]pyridine-3-carboxamido)phenyl)-2H-1,2,3-triazol-4-yl)azetidine-1-carboxylate], the pIC50 in series [1] is 7.62. For the same compound, the efflux ratio at 2 h, 1 µM in series [2] turned out to be 72.2.

In series [1], `CCS(=O)(=O)N1CC(n2nnc(-c3ccc(C)c(NC(=O)c4cnn5ccccc45)c3)n2)C1` [Example 173, N-(5-(2-(1-(ethylsulfonyl)azetidin-3-yl)-2H-tetrazol-5-yl)-2-methylphenyl)pyrazolo[1,5-a]pyridine-3-carboxamide] had a pIC50 of 7.92. Also, the efflux ratio at 2 h, 1 µM in series [2] turned out to be 3.5.

Turning to `Cc1ccc(-c2nnn([C@H]3C[C@@H](C(F)(F)F)C3)n2)cc1NC(=O)c1cnn2ccc(N3CC(C)(O)C3)cc12` [Example 107, 5-(3-hydroxy-3-methylazetidin-1-yl)-N-(2-methyl-5-(2-((1s,3s)-3-(trifluoromethyl)cyclobutyl)-2H-tetrazol-5-yl)phenyl)pyrazolo[1,5-a]pyridine-3-carboxamide], the pIC50 in series [1] is 8.26. The efflux ratio at 2 h, 1 µM in series [2] is 28.9.

Compound `COCCS(=O)(=O)N1CC(n2nnc(-c3ccc(C)c(NC(=O)c4cnn5ccccc45)c3)n2)C1` [Example 178, N-(5-(2-(1-((2-methoxyethyl)sulfonyl)azetidin-3-yl)-2H-tetrazol-5-yl)-2-methylphenyl)pyrazolo[1,5-a]pyridine-3-carboxamide] showed a pIC50 in series [1] of 7.75. The efflux ratio at 2 h, 1 µM in series [2] came to 4.7.

Turning to `Cc1cc(Cl)c(NC(=O)c2cnn3ccc(-c4cn(CC5(O)CCOCC5)nc4C)cc23)cc1-c1nnn(C2CC2)n1` [Example 235, N-(2-chloro-5-(2-cyclopropyl-2H-tetrazol-5-yl)-4-methylphenyl)-5-(1-((4-hydroxytetrahydro-2H-pyran-4-yl)methyl)-3-methyl-1H-pyrazol-4-yl)pyrazolo[1,5-a]pyridine-3-carboxamide], in series [1], the pIC50 is 8.80. In addition, the efflux ratio at 2 h, 1 µM in series [2] turned out to be 3.9.

With `COC(=O)N1CC(c2cnn(-c3ccc(C)c(NC(=O)c4cnn5ccc(NCC(F)F)cc45)c3)n2)C1` [Example 139, methyl 3-(2-(3-(5-((2,2-difluoroethyl)amino)pyrazolo[1,5-a]pyridine-3-carboxamido)-4-methylphenyl)-2H-1,2,3-triazol-4-yl)azetidine-1-carboxylate], the negative logarithm of the IC50 (pIC50) in series [1] was 7.58. Besides, the efflux ratio at 2 h, 1 µM in series [2] was determined as 18.9.

Regarding `Cc1ccc(-c2nnn(C3CC(F)(F)C3)n2)cc1NC(=O)c1cnn2ccc(N3CCC(C)(O)CC3)cc12` [Example 61, N-(5-(2-(3,3-difluorocyclobutyl)-2H-tetrazol-5-yl)-2-methylphenyl)-5-(4-hydroxy-4-methylpiperidin-1-yl)pyrazolo[1,5-a]pyridine-3-carboxamide], in series [1], the pIC50 was 8.49. Moreover, the efflux ratio at 2 h, 1 µM in series [2] stood at 16.4.

For `Cc1ccc(-c2nnn(C)n2)cc1NC(=O)c1cnn2ccc(-c3cnn(C[C@@H](C)O)c3)cc12` (mixture of isomers) [Example 53, (R)-5-(1-(2-hydroxypropyl)-1H-pyrazol-4-yl)-N-(2-methyl-5-(2-methyl-2H-tetrazol-5-yl)phenyl)pyrazolo[1,5-a]pyridine-3-carboxamide and (S)-5-(1-(2-hydroxypropyl)-1H-pyrazol-4-yl)-N-(2-methyl-5-(2-methyl-2H-tetrazol-5-yl)phenyl)pyrazolo[1,5-a]pyridine-3-carboxamide], the pIC50 in series [1] is 8.82. In series [2], the efflux ratio at 2 h, 1 µM amounted to 10.9.

As to `COC(=O)N1CC(n2nnc(-c3ccc(C)c(NC(=O)c4cnn5ccc(NCC(C)(C)OC)cc45)c3)n2)C1` [Example 96, methyl 3-(5-(3-(5-((2-methoxy-2-methylpropyl)amino)pyrazolo[1,5-a]pyridine-3-carboxamido)-4-methylphenyl)-2H-tetrazol-2-yl)azetidine-1-carboxylate], the negative logarithm of the IC50 (pIC50) in series [1] was 7.43. Moreover, in series [2], the efflux ratio at 2 h, 1 µM was 9.5.

As for `COCCNc1ccn2ncc(C(=O)Nc3cc(-c4nnn([C@H]5C[C@@H](C(F)(F)F)C5)n4)c(F)cc3C)c2c1` [Example 108, N-(4-fluoro-2-methyl-5-(2-((1s,3s)-3-(trifluoromethyl)cyclobutyl)-2H-tetrazol-5-yl)phenyl)-5-((2-methoxyethyl)amino)pyrazolo[1,5-a]pyridine-3-carboxamide], the pIC50 in series [1] is 7.94. In addition, in series [2], the efflux ratio at 2 h, 1 µM is 4.

Regarding `Cc1ccc(-n2nnc([C@@H]3CC3(F)F)n2)cc1NC(=O)c1cnn2ccc(-c3cnn(CCO)c3)cc12` (single isomer, unassigned) [Example 233, (S)-N-(5-(5-(2,2-difluorocyclopropyl)-2H-tetrazol-2-yl)-2-methylphenyl)-5-(1-(2-hydroxyethyl)-1H-pyrazol-4-yl)pyrazolo[1,5-a]pyridine-3-carboxamide or (R)-N-(5-(5-(2,2-difluorocyclopropyl)-2H-tetrazol-2-yl)-2-methylphenyl)-5-(1-(2-hydroxyethyl)-1H-pyrazol-4-yl)pyrazolo[1,5-a]pyridine-3-carboxamide], the pIC50 in series [1] is 8.66. Moreover, the efflux ratio at 2 h, 1 µM in series [2] worked out at 6.3.

The compound `Cc1ccc(-c2nnn(C)n2)cc1NC(=O)c1cnn2ccc(-c3cnn(C[C@H](C)O)c3)cc12` (single isomer, unassigned) [Example 54, (S)-5-(1-(2-hydroxypropyl)-1H-pyrazol-4-yl)-N-(2-methyl-5-(2-methyl-2H-tetrazol-5-yl)phenyl)pyrazolo[1,5-a]pyridine-3-carboxamide or (R)-5-(1-(2-hydroxypropyl)-1H-pyrazol-4-yl)-N-(2-methyl-5-(2-methyl-2H-tetrazol-5-yl)phenyl)pyrazolo[1,5-a]pyridine-3-carboxamide] showed a pIC50 in series [1] of 8.85. Besides, the efflux ratio at 2 h, 1 µM in series [2] turned out to be 8.4.

In series [1], `Cc1nnn(-c2ccc(C)c(NC(=O)c3cnn4ccc(-c5cn(C[C@H]6CNCCO6)nc5C)cc34)c2)n1` [Example 230, (R)-5-(3-methyl-1-(morpholin-2-ylmethyl)-1H-pyrazol-4-yl)-N-(2-methyl-5-(5-methyl-2H-tetrazol-2-yl)phenyl)pyrazolo[1,5-a]pyridine-3-carboxamide] showed a pIC50 of 9.10. Also, in series [2], the efflux ratio at 2 h, 1 µM was found to be 116.

With `COC(=O)N1CC(n2nnc(-c3ccc(C)c(NC(=O)c4cnn5ccc(NCC6CCO6)cc45)c3)n2)C1` (stereo not drawn) [Example 95, methyl 3-(5-(4-methyl-3-(5-((oxetan-2-ylmethyl)amino)pyrazolo[1,5-a]pyridine-3-carboxamido)phenyl)-2H-tetrazol-2-yl)azetidine-1-carboxylate], the pIC50 in series [1] was 7.52. Besides, the efflux ratio at 2 h, 1 µM in series [2] was found to be 21.5.

In the case of `COCCNc1ccn2ncc(C(=O)Nc3cc(-c4nnn(C5CC(F)C5)n4)ccc3C)c2c1` (stereo not drawn) [Example 151, N-(5-(2-(3-fluorocyclobutyl)-2H-tetrazol-5-yl)-2-methylphenyl)-5-((2-methoxyethyl)amino)pyrazolo[1,5-a]pyridine-3-carboxamide], the pIC50 in series [1] is 8.39. Besides, in series [2], the efflux ratio at 2 h, 1 µM was determined as 4.8.
